The nature of data set [1]: DOX release experiments from dialysis cassette, Higuchi fit and f1/f2 profile comparison. Type of data set: physicochemical. As to conditions: at either pH value (5.0 or 7.4). On the procedure:
General procedure for the DOX release experiments: To a presoaked dialysis cassette (Slide-A-Lyzer, 10 kDa MWCO, Pierce Biotechnology, Rockford Ill., USA) was added ca. 7 mL of the DOX-loaded SCK or SC-rod solution. The cassette was stirred in a beaker containing 4 L of 5 mM PBS at pH 5.0 or 7.4 and 37° C. for a period of 52 hrs. Samples (ca. 1 mL) were removed from the cassette at 0, 1, 2, 3, 5, 7, 9, 15, 21, 27, 39 and 52 h and analyzed by UV-vis spectroscopy (488 nm, ε=13050 M^−1 cm^−1) and injected back to the cassette immediately after the analysis. DOX release data points were then fitted to a third order polynomial equation.
DOX-SCR or DOX-SCK (ca. 4 mL) was transferred to a presoaked dialysis cassette (Slide-A-Lyzer, 10 kDa MWCO, Pierce Biotechnology, Rockford Ill., USA). […] Samples (ca. 1.5 mL) were removed from the cassette at 0, 1, 2, 4, 6, 9, 12, 18, 24, 30, 40, 50 and 60 h, analyzed by UV-vis (488 nm, 6=12500 M^−1cm^−1 determined by a calibration curve in PBS), and then returned to the cassette. […]
To further quantitatively understand the differences and similarities in DOX release profiles, model-independent methods were used to calculate f1, the difference factor, and f2, the similarity factor (F. O. Costa, J. J. S. Sousa, A. Pais, S. J. Formosinho, J. Controlled Release 2003, 89, 199; J. W. Moore, H. H. Flanner, Pharm. Tech. 1996, 20, 67.): […]

Data set [2] concerns KB cells. Kind of data set: EST-1 cell viability assay using KB cells (cell cytotoxicity). In kind it is cell-based. The settings on record: Homo sapiens. On the procedure: Table 3 provides 1050 data for the EST-1 cell viability assay using KB cells with 2 hour treatment with the particles described above. […] HPLC and MS analyses were in agreement with the determination of PTX concentration.
Table 5 provides results of cell cytotoxicity 1050 data for the EST-1 cell viability assay using KB cells with the particles described above. “ND” means not determined.

Data set [3] can be described thus: Core loading of phototherapeutic agent into micelles. Type of data set: physicochemical. As to conditions: poly(p-hydroxystyrene) core; shown previously. How it is done: Core loading was achieved by addition of MP-3397 stock solution (in DMF) into aqueous micelle solution followed by removal of organic solvent through dialysis. Alternatively, MP-3397 stock solution incubated with block copolymer (both in DMF) underwent co-assembly upon addition of water followed by dialysis. In an example, poly(p-hydroxystyrene) core achieved maximum of 5 wt % core loading whereas polystyrene core achieved ca. 15 wt %.

Where two headings read alike, the source gives them in different places. Some results are limits rather than exact numbers.

doxorubicin [free DOX]: the “time to complete release from the dialysis cassette” value in data set [1] is not above 4 h. The “DOX release from the dialysis cassette” value in data set [1] (in 3 h) was 95%.
By IC50 is commonly meant the midpoint of a concentration-inhibition curve. For the compound `CC(=O)O[C@H]1C(=O)[C@@]2(C)[C@H]([C@H](OC(=O)c3ccccc3)[C@]3(O)C[C@H](OC(=O)[C@H](O)[C@@H](NC(=O)c4ccccc4)c4ccccc4)C(C)=C1C3(C)C)[C@]1(OC(C)=O)CO[C@@H]1C[C@@H]2O` [Paclitaxel, paclitaxel], the IC50 in data set [2] (2 hr treatment, 60 nm particles, read-out: PTX 2 hr IC50) was 50 nM; in data set [2] (72 hr, 60 nm particles, read-out: PTX 72 hr IC50) it was 7 nM; in data set [2] (after one day of loading, 10 nm vs. 20 nm particles, read-out: 2 hr IC50), 45 nM; in data set [2] (after two weeks of loading, 10 nm vs. 20 nm particles, read-out: 72 hr IC50), 2 nM.
On to `Oc1c(I)cc(I)c(-c2c(I)cc(I)c(O)c2I)c1I` [MP-4089], for which the core loading in data set [3] is 15 wt %.
